What all share (assay type): functional, cell-based
In series [1] the target is T1, Oatp1 (Solute carrier organic anion transporter family member 1A1) (Rattus norvegicus, UniProt P46720).
T1 sequence (P46720 whole entry): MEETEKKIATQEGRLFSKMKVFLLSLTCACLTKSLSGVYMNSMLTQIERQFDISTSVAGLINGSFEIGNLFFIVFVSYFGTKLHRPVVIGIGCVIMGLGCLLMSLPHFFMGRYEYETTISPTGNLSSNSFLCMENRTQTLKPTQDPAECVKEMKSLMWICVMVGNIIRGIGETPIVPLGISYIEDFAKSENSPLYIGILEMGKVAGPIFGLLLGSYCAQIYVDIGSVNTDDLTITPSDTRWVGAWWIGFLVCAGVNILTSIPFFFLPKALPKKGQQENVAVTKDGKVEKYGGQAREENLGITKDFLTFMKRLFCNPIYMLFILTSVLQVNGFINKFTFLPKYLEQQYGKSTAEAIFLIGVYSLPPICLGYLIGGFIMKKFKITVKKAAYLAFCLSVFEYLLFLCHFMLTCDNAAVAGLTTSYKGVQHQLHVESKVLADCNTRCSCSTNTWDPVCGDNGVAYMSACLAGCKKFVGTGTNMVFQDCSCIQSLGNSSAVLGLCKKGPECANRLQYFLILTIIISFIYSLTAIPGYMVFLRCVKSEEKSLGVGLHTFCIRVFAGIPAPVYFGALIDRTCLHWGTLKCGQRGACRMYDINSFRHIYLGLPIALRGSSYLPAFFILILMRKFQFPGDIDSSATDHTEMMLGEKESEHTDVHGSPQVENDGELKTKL
The series is described as follows: TP_TRANSPORTER: inhibition of Enalapril uptake (Enalapril: ? uM, BSP-SG: 200 uM) in Oatp1-expressing HeLa cells. Set-up: scale not given: the % may be the effect or the level left. The conditions noted are these: human, probe Enalapril, read-out: Activity.

In series [2] the target is T2, Solute carrier organic anion transporter family member 1A1 (Rattus norvegicus, UniProt P46720).
T2 sequence (P46720 whole entry): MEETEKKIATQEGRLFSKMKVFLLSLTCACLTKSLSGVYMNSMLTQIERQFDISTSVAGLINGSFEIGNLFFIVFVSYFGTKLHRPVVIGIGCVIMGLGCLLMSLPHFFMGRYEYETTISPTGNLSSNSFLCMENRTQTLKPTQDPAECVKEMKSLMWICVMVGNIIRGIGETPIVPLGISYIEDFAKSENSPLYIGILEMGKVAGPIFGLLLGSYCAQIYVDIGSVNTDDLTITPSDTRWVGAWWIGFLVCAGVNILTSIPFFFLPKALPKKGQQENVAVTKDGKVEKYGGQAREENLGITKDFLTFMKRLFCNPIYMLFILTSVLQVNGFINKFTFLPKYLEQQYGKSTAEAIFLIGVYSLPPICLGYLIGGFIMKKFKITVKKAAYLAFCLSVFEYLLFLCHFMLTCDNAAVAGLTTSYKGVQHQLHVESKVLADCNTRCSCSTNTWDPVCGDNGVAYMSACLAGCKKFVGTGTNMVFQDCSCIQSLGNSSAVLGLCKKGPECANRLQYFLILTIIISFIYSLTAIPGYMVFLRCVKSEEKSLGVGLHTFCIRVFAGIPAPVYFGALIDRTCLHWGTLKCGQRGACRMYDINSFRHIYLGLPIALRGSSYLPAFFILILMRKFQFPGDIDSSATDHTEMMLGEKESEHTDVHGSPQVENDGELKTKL
Nature of the series: (§1) TP_TRANSPORTER: uptake in Oatp1-expressing HeLa cells. Particulars: human.

Series [3] deals with T1, Oatp1 (Solute carrier organic anion transporter family member 1A1). The series is described as follows: TP_TRANSPORTER: inhibition of Enalapril uptake (Enalapril: ? uM, E1S: 100 uM) in Oatp1-expressing HeLa cells. The conditions noted are these: human, probe Enalapril, read-out: Activity. Set-up: scale not given: the % may be the effect or the level left.
The target in series [4] is T2, Solute carrier organic anion transporter family member 1A1. Nature of the series: TP_TRANSPORTER: inhibition of Enalapril uptake in Oatp1-expressing HeLa cells.
Substrate in series [5]: CCOC(=O)[C@H](CCc1ccccc1)N[C@@H](C)C(=O)N1CCC[C@H]1C(=O)O
The description is as §1.

`N[C@@H](CCC(=O)N[C@@H](CSc1c(Br)c(Br)c2c(c1Br)C(=O)OC2(c1ccc(O)c(S(=O)(=O)O)c1)c1ccc(O)c(S(=O)(=O)O)c1)C(=O)NCC(=O)O)C(=O)O`: the activity at 200 µM in series [1] came to 78%. Moreover, the Activity entry in series [2] is “substrate [+]”.
As to `C[C@H](N[C@@H](CCc1ccccc1)C(=O)O)C(=O)N1CCC[C@H]1C(=O)O` [ENALAPRILAT ANHYDROUS], in series [2], the Activity entry is “is not a substrate [-]”.
In the case of `C[C@]12CC[C@@H]3c4ccc(OS(=O)(=O)O)cc4CC[C@H]3[C@@H]1CCC2=O` [ESTRONE SULFURIC ACID], the activity at 100 µM in series [3] came to 20%. For the same molecule, in series [2], the Activity result was “substrate [+]”.
With `Cc1nccc2c1[nH]c1cc(O)ccc12.O=S(=O)(O)O` [HARMOL SULFATE], the Activity result in series [2] was “is not a substrate [-]”.
Regarding `O=C1OC(c2ccc(O)c(S(=O)(=O)O)c2)(c2ccc(O)c(S(=O)(=O)O)c2)c2c(Br)c(Br)c(Br)c(Br)c21` [SULFOBROMOPHTHALEIN SODIUM], in series [4], the Ki stood at 1980 nM.

B1: Solute carrier organic anion transporter family member 1A1 (Rattus norvegicus) (protein)
chain: MEETEKKIATQEGRLFSKMKVFLLSLTCACLTKSLSGVYMNSMLTQIERQFDISTSVAGLINGSFEIGNLFFIVFVSYFGTKLHRPVVIGIGCVIMGLGCLLMSLPHFFMGRYEYETTISPTGNLSSNSFLCMENRTQTLKPTQDPAECVKEMKSLMWICVMVGNIIRGIGETPIVPLGISYIEDFAKSENSPLYIGILEMGKVAGPIFGLLLGSYCAQIYVDIGSVNTDDLTITPSDTRWVGAWWIGFLVCAGVNILTSIPFFFLPKALPKKGQQENVAVTKDGKVEKYGGQAREENLGITKDFLTFMKRLFCNPIYMLFILTSVLQVNGFINKFTFLPKYLEQQYGKSTAEAIFLIGVYSLPPICLGYLIGGFIMKKFKITVKKAAYLAFCLSVFEYLLFLCHFMLTCDNAAVAGLTTSYKGVQHQLHVESKVLADCNTRCSCSTNTWDPVCGDNGVAYMSACLAGCKKFVGTGTNMVFQDCSCIQSLGNSSAVLGLCKKGPECANRLQYFLILTIIISFIYSLTAIPGYMVFLRCVKSEEKSLGVGLHTFCIRVFAGIPAPVYFGALIDRTCLHWGTLKCGQRGACRMYDINSFRHIYLGLPIALRGSSYLPAFFILILMRKFQFPGDIDSSATDHTEMMLGEKESEHTDVHGSPQVENDGELKTKL
For the molecule B1, the Km in series [5] came to 252 µM.

Broadly, the Ki is a measure of affinity in units of concentration, obtained from inhibition or displacement. Broadly, the Km is the substrate concentration at which the rate is half of its maximum.

(Values after ChEMBL document CHEMBL2074157, “The modified dipeptide, enalapril, an angiotensin-converting enzyme inhibitor, is transported by the rat liver organic anion transport protein” (Hepatology, 1998).)
